Test results from US9296711B2, “Substituted isoxazole amide compounds as inhibitors of stearoyl-CoA desaturase 1 (SCD1)” (Hoffman-La Roche Inc., priority 2012, dated 2016).

molecular target: T1, SCD1 (Mus musculus, UniProt P13516); assay: SCD assay: release of tritiated water from desaturation of 9,10-3H-stearoyl CoA by mouse liver microsomes; assay type: biochemical; details: mouse liver microsomes as SCD source; 300 nM (9,10)3H-stearoyl CoA; 25 minutes at room temperature; read-out: IC50 (in vitro inhibition of SCD1)
T1 construct: Mouse liver microsomes, prepared from mice fed a high-carbohydrate diet, were a source of the SCD; from tissue; host or cells: mouse liver microsomes (mice fed a high-carbohydrate diet)
T1 sequence (P13516 1-355): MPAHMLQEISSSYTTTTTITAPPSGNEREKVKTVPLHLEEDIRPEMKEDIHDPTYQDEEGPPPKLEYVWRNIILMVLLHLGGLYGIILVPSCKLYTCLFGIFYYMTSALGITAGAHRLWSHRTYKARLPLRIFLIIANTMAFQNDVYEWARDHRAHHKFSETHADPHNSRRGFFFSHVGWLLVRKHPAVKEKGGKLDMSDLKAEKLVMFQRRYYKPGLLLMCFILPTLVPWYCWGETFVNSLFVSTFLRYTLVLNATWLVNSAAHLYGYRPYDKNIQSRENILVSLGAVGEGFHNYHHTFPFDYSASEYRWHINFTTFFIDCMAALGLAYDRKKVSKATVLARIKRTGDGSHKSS
From the text: Stearoyl CoA desaturase activity was monitored by a modification of the acyl carrier protein assay described by B. R. Talamo and K. Bloch in Anal. Biochem. 1968, 29, 300-304. The SCD assay monitors the release of tritiated water from the desaturation of 9,10-^3H-stearoyl CoA.
Mouse liver microsomes, prepared from mice fed a high-carbohydrate diet, were a source of the SCD and cyt b5 and cyt b5 reductase, necessary accessory proteins for the coupled reaction. Reaction mixtures for compound titrations contained 50 mM Tris HCl pH 7.5, 100 mM NaCl, 0.165 mg/ml BSA, 2.4% DMSO, 1 mM NADH, 0.03% T-20, and 300 nM (9,10)^3H-stearoyl CoA (Perkin-Elmer). Reactions were initiated upon the addition of 4 ug/ml SCD microsomes. Incubations were terminated after 25 minutes at room temperature with cold 6% TCA. After standing 10 minutes at 4° C., samples were centrifuged 15 minutes at 4000 rpm to pellet precipitated protein. Supernatants were added to microtiter plates containing suspensions of activated charcoal (Darco G-60, Fisher Scientific) and mixed by inversion. Plates were then centrifuged to separate ^3H—H2O product from charcoal-bound reactants. Supernatants were quantitated in a Perkin Elmer Topcount 384 after solubilization in ScintiSafe Plus 50% (Fisher Scientific).
Inhibition (%) of SCD activity by compounds was calculated according to the following formula: % Inhibition=100*[1−(CPMsample−CPMblank)/(CPMtotal−CPMblank)]

Row | Structure (SMILES) | IC50
1 | NC(=O)c1cc(-c2ccc(CN3Cc4ccccc4C3)cc2)no1 [Example 46, 3-[4-(1,3-Dihydro-isoindol-2-ylmethyl)-phenyl]-isoxazole-5-carboxylic acid amide] | 2800 nM
2 | NC(=O)c1cc(-c2ccc(Cn3cc4ccccc4n3)cc2)no1 [Example 51, 3-(4-Indazol-2-ylmethyl-phenyl)-isoxazole-5-carboxylic acid amide] | 47 nM
3 | NC(=O)c1cc(-c2ccc(OCc3ccccc3C(F)(F)F)cc2)no1 [Example 21, 3-[4-(2-Trifluoromethyl-benzyloxy)-phenyl]-isoxazole-5-carboxylic acid amide] | 180 nM
4 | NC(=O)c1cc(-c2ccc(Cn3ccc4ccccc43)cc2)no1 [Example 47, 3-(4-Indol-1-ylmethyl-phenyl)-isoxazole-5-carboxylic acid amide] | 17 nM
5 | CC(C)c1ccccc1OCc1ccc(-c2cc(C(N)=O)on2)cc1 [Example 32, 3-[4-(2-Isopropyl-phenoxymethyl)-phenyl]-isoxazole-5-carboxylic acid amide] | 380 nM
6 | CS(=O)(=O)c1ccccc1COc1ccc(-c2cc(C(N)=O)on2)cc1 [Example 22, 3-[4-(2-Methanesulfonyl-benzyloxy)-phenyl]-isoxazole-5-carboxylic acid amide] | 1500 nM
7 | COc1ccccc1OCc1ccc(-c2cc(C(N)=O)on2)cc1 [Example 28, 3-[4-(2-Methoxy-phenoxymethyl)-phenyl]-isoxazole-5-carboxylic acid amide] | 170 nM
8 | CC(C)(C)c1ccccc1OCc1ccc(-c2cc(C(N)=O)on2)cc1 [Example 35, 3-[4-(2-tert-Butyl-phenoxymethyl)-phenyl]-isoxazole-5-carboxylic acid amide] | 650 nM
9 | NC(=O)c1cc(-c2ccc(OCc3c(Cl)cccc3Cl)cc2)no1 [Example 6, 3-[4-(2,6-Dichloro-benzyloxy)-phenyl]-isoxazole-5-carboxylic acid amide] | 2600 nM
10 | COc1ccccc1COc1ccc(-c2cc(C(N)=O)on2)cc1 [Example 3, 3-[4-(2-Methoxy-benzyloxy)-phenyl]-isoxazole-5-carboxylic acid amide] | 850 nM
11 | NC(=O)c1cc(-c2ccc(COc3cccc(Cl)c3)cc2)no1 [Example 24, 3-[4-(3-Chloro-phenoxymethyl)-phenyl]-isoxazole-5-carboxylic acid amide] | 290 nM
12 | NC(=O)c1cc(-c2ccc(CN3CCCc4ccccc43)cc2)no1 [Example 52, 3-[4-(3,4-Dihydro-2H-quinolin-1-ylmethyl)-phenyl]-isoxazole-5-carboxylic acid amide] | 24 nM
13 | NC(=O)c1cc(-c2ccc(OCc3cc(F)ccc3Cl)cc2)no1 [Example 13, 3-[4-(2-Chloro-5-fluoro-benzyloxy)-phenyl]-isoxazole-5-carboxylic acid amide] | 420 nM
14 | Cc1ccccc1OCc1ccc(-c2cc(C(N)=O)on2)cc1 [Example 26, 3-(4-o-Tolyloxymethyl-phenyl)-isoxazole-5-carboxylic acid amide] | 66 nM
15 | NC(=O)c1cc(-c2ccc(OCc3cccc(C(F)(F)F)c3)cc2)no1 [Example 17, 3-[4-(3-Trifluoromethyl-benzyloxy)-phenyl]-isoxazole-5-carboxylic acid amide] | 1400 nM
16 | Cc1cccc(C)c1OCc1ccc(-c2cc(C(N)=O)on2)cc1 [Example 31, 3-[4-(2,6-Dimethyl-phenoxymethyl)-phenyl]-isoxazole-5-carboxylic acid amide] | 1900 nM
17 | NC(=O)c1cc(-c2ccc(OCc3ccccc3Cl)cn2)no1 [Example 14, 3-[5-(2-Chloro-benzyloxy)-pyridin-2-yl]-isoxazole-5-carboxylic acid amide] | 1400 nM

Row | Structure (SMILES) | IC50
18 | Cc1c(Cl)cccc1OCc1ccc(-c2cc(C(N)=O)on2)cc1 [Example 41, 3-[4-(3-Chloro-2-methyl-phenoxymethyl)-phenyl]-isoxazole-5-carboxylic acid amide] | 390 nM
19 | NC(=O)c1cc(-c2ccc(OCc3cccc(Cl)c3)cc2)no1 [Example 18, 3-[4-(3-Chloro-benzyloxy)-phenyl]-isoxazole-5-carboxylic acid amide] | 1500 nM
20 | COc1cccc(OCc2ccc(-c3cc(C(N)=O)on3)cc2)c1 [Example 29, 3-[4-(3-Methoxy-phenoxymethyl)-phenyl]-isoxazole-5-carboxylic acid amide] | 340 nM
21 | NC(=O)c1cc(-c2ccc(OCc3ccc(F)c(F)c3)cc2)no1 [Example 7, 3-[4-(3,4-Difluoro-benzyloxy)-phenyl]-isoxazole-5-carboxylic acid amide] | 2300 nM
22 | NC(=O)c1cc(-c2ccc(OCc3ccccc3SC(F)(F)F)cc2)no1 [Example 1, 3-[4-(2-Trifluoromethylsulfanyl-benzyloxy)-phenyl]-isoxazole-5-carboxylic acid amide] | 480 nM
23 | Cc1ccc(Cl)cc1OCc1ccc(-c2cc(C(N)=O)on2)cc1 [Example 40, 3-[4-(5-Chloro-2-methyl-phenoxymethyl)-phenyl]-isoxazole-5-carboxylic acid amide] | 140 nM
24 | Cc1cccc2c1ccn2Cc1ccc(-c2cc(C(N)=O)on2)cc1 [Example 54, 3-[4-(4-Methyl-indol-1-ylmethyl)-phenyl]-isoxazole-5-carboxylic acid amide] | 220 nM
25 | NC(=O)c1cc(-c2ccc(OCc3ccccc3Cl)cc2)no1 [Example 19, 3-[4-(2-Chloro-benzyloxy)-phenyl]-isoxazole-5-carboxylic acid amide] | 280 nM
26 | NC(=O)c1cc(-c2ccc(OCc3ccccc3F)cc2)no1 [Example 8, 3-[4-(2-Fluoro-benzyloxy)-phenyl]-isoxazole-5-carboxylic acid amide] | 560 nM
27 | NC(=O)c1cc(-c2ccc(Cn3cnc4ccccc43)cc2)no1 [Example 49, 3-(4-Benzoimidazol-1-ylmethyl-phenyl)-isoxazole-5-carboxylic acid amide] | 72 nM
28 | NC(=O)c1cc(-c2ccc(Cn3nnc4ccccc43)cc2)no1 [Example 48, 3-(4-Benzotriazol-1-ylmethyl-phenyl)-isoxazole-5-carboxylic acid amide] | 230 nM
29 | NC(=O)c1cc(-c2ccc(COc3ccc(Cl)cc3)cc2)no1 [Example 25, 3-[4-(4-Chloro-phenoxymethyl)-phenyl]-isoxazole-5-carboxylic acid amide] | 1300 nM
30 | NC(=O)c1cc(-c2ccc(OCc3cccnc3Cl)cc2)no1 [Example 15, 3-[4-(2-Chloro-pyridin-3-ylmethoxy)-phenyl]-isoxazole-5-carboxylic acid amide] | 2400 nM
31 | NC(=O)c1cc(-c2ccc(OCc3ccccc3[S+]([O-])C(F)(F)F)cc2)no1 (stereo not drawn) [Example 2, 3-[4-(2-Trifluoromethanesulfinyl-benzyloxy)-phenyl]-isoxazole-5-carboxylic acid amide] | 580 nM
32 | CC1Cc2ccccc2N1Cc1ccc(-c2cc(C(N)=O)on2)cc1 (stereo not drawn) [Example 53, 3-[4-(2-Methyl-2,3-dihydro-indol-1-ylmethyl)-phenyl]-isoxazole-5-carboxylic acid amide] | 100 nM
33 | N#Cc1ccccc1OCc1ccc(-c2cc(C(N)=O)on2)cc1 [Example 37, 3-[4-(2-Cyano-phenoxymethyl)-phenyl]-isoxazole-5-carboxylic acid amide] | 310 nM
